A word on the inhibition: it is the percentage by which the read-out fell short of the control.
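Note: compounds preincubated 30 min at room temperature in the assay mixture, activity referenced to a 0.5% (v/v) DMSO control taken as 100%, run in triplicate.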

The target in this test is T1, SHP2 (Homo sapiens, UniProt Q06124).
T1 sequence (Q06124 1-593): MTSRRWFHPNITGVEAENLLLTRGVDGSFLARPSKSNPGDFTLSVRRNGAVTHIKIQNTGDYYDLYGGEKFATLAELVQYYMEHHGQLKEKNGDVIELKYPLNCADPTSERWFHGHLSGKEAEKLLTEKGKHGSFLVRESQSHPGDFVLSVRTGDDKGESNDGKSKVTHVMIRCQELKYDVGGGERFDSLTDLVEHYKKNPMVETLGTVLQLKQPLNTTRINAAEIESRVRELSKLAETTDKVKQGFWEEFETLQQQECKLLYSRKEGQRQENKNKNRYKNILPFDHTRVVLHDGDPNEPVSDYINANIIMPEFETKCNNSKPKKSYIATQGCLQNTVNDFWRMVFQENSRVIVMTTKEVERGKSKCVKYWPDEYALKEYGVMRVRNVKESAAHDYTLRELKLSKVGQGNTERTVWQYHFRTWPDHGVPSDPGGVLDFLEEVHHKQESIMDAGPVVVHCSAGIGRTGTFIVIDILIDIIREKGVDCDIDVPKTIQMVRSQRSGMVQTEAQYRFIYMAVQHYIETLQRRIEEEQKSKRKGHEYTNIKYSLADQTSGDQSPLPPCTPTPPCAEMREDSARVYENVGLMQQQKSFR
Nature of the test: biochemical. The following applies: read-out: SHP2 inhibition (%)@0.1 μM.
For `CS(=O)(=O)Nc1ccc2c(c1)[C@@H](N)C1(CCN(c3cnc(Sc4ccnc(N)c4Cl)c(N)n3)CC1)C2` [Example 63, (S)-N-(1-amino-1′-(6-amino-5-((2-amino-3-chloropyridin-4-yl)thio)pyrazin-2-yl)-1,3-dihydrospiro [indene-2,4′-piperidin]-6-yl)methane-sulfonamide], the inhibition at 0.1 µM stood at 93%.

Consider `NC(=O)Nc1ccc2c(c1)[C@@H](N)C1(CCN(c3cnc(Sc4ccnc(N)c4Cl)c(N)n3)CC1)C2` [Example 46, (S)-1-(1-amino-1′-(6-amino-5-((2-amino-3-chloropyridin-4-yl)thio)pyrazin-2-yl)-1,3-dihydrospiro [indene-2,4′-piperidin]-6-yl)urea], for which the inhibition at 0.1 µM was 69%.

With `Nc1cccc(Sc2ncc(N3CCC4(CC3)Cc3ncccc3[C@H]4N)nc2N)c1Cl` [Example 98, (S)-1′-(6-amino-5-((3-amino-2-chlorophenyl)thio)pyrazin-2-yl)-5,7-dihydrospiro [cyclopenta[b]pyridine-6,4′-piperidin]-5-amine], the inhibition at 0.1 µM worked out at 81%.

As to `Nc1nc(N2CCC3(CC2)Cc2ccccc2[C@H]3N)cnc1Sc1ccnc(Cl)c1Cl` [Example 66, (S)-1′-(6-amino-5-((2,3-dichloropyridin-4-yl)thio)pyrazin-2-yl)-1,3-dihydro-spiro[indene-2,4′-piperidin]-1-amine], the inhibition at 0.1 µM was determined as 72%.

Consider `CN(C)C(=O)c1ccc2c(c1)[C@@H](N)C1(CCN(c3cnc(Sc4ccnc(N)c4Cl)c(N)n3)CC1)C2` [Example 27, (S)-1-amino-1′-(6-amino-5-((2-amino-3-chloropyridin-4-yl)thio)pyrazin-2-yl)-N,N-dimethyl-1,3-dihydrospiro [indene-2,4′-piperidine]-6-carboxamide], for which the inhibition at 0.1 µM was found to be 79%.

As for `Nc1nc(N2CCC3(CC2)Cc2ccncc2[C@H]3N)cnc1Sc1ccnc(N)c1Cl` [Example 21, (S)-1′-(6-amino-5-((2-amino-3-chloropyridin-4-yl)thio)pyrazin-2-yl)-5,7-dihydrospiro[cyclopenta [c]pyridine-6,4′-piperidin]-7-amine], the inhibition at 0.1 µM stood at 49%.

Consider `Nc1nc(N2CCC3(CC2)Cc2ccc(-n4cccc4)cc2[C@H]3N)cnc1Sc1ccnc(N)c1Cl` [Example 37, (S)-1′-(6-amino-5-((2-amino-3-chloropyridin-4-yl)thio)pyrazin-2-yl)-6-(1H-pyrrol-1-yl)-1,3-dihydro-spiro[indene-2,4′-piperidin]-1-amine], for which the inhibition at 0.1 µM was 76%.

For `Nc1nc(N2CCC3(CC2)Cc2ncccc2[C@H]3N)cnc1Sc1cc(Cl)ncc1C(F)(F)F` [Example 120, (S)-1′-(6-amino-5-((2-chloro-5-(trifluoromethyl)pyridin-4-yl)thio)pyrazin-2-yl)-5,7-dihydrospiro [cyclopenta[b]pyridine-6,4′-piperidin]-5-amine], the inhibition at 0.1 µM amounted to 87%.

In the case of `Nc1nc(N2CCC3(CC2)Cc2cc(Br)ccc2[C@H]3N)cnc1Sc1ccnc(N)c1Cl` [Example 47, (S)-1′-(6-amino-5-((2-amino-3-chloropyridin-4-yl)thio)pyrazin-2-yl)-5-bromo-1,3-dihydro-spiro[indene-2,4′-piperidin]-1-amine], the inhibition at 0.1 µM was determined as 81%.

Turning to `Nc1nccc(Sc2cnc(N3CCC4(CC3)Cc3sc(Cl)nc3C4N)cn2)c1Cl` (stereo not drawn) [Example 131, 1′-(5-((2-amino-3-chloropyridin-4-yl)thio)pyrazin-2-yl)-2-chloro-4,6-dihydrospiro [cyclopenta[d]thiazole-5,4′-piperidin]-4-amine], the inhibition at 0.1 µM stood at 83%.

In the case of `Nc1nc(N2CCC3(CC2)Cc2ncccc2[C@H]3N)cnc1Sc1cnccc1Cl` [Example 107, (S)-1′-(6-amino-5-((4-chloropyridin-3-yl)thio)pyrazin-2-yl)-5,7-dihydrospiro[cyclo-penta[b]pyridine-6,4′-piperidin]-5-amine], the inhibition at 0.1 µM was found to be 77%.

`Nc1nccc(Sc2cnc(N3CCC4(CC3)Cc3ccccc3C4N)cn2)c1Cl` (stereo not drawn) [Example 125, 1′-(5-((2-amino-3-chloropyridin-4-yl)thio)pyrazin-2-yl)-1,3-dihydrospiro [indene-2,4′-piperidin]-1-amine]: the inhibition at 0.1 µM came out at 86%.

Regarding `Nc1nc(N2CCC3(CC2)Cc2ccc(C(=O)O)cc2[C@H]3N)cnc1Sc1ccnc(N)c1Cl` [Example 80, (S)-1-amino-1′-(6-amino-5-((2-amino-3-chloropyridin-4-yl)thio)pyrazin-2-yl)-1,3-dihydrospiro [indene-2,4′-piperidine]-6-carboxylic acid], the inhibition at 0.1 µM is 75%.

Take `Nc1cc(Sc2ncc(N3CCC4(CC3)Cc3ncccc3[C@H]4N)nc2N)c(Cl)cn1` [Example 113, (S)-1′-(6-amino-5-((2-amino-5-chloropyridin-4-yl)thio)pyrazin-2-yl)-5,7-dihydrospiro [cyclopenta[b]pyridine-6,4′-piperidin]-5-amine]: the inhibition at 0.1 µM was found to be 80%.

As to `Cc1ccc2c(c1)[C@@H](N)C1(CCN(c3cnc(Sc4ccnc(N)c4Cl)c(N)n3)CC1)C2` [Example 23, (S)-1′-(6-amino-5-((2-amino-3-chloropyridin-4-yl)thio)pyrazin-2-yl)-6-methyl-1,3-dihydro-spiro[indene-2,4′-piperidin]-1-amine], the inhibition at 0.1 µM was found to be 71%.

Consider `CC(=O)c1ccc2c(c1)[C@@H](N)C1(CCN(c3cnc(Sc4ccnc(N)c4Cl)c(N)n3)CC1)C2` [Example 158, (S)-1-(1-amino-1′-(6-amino-5-((2-amino-3-chloropyridin-4-yl)thio)pyrazin-2-yl)-1,3-dihydrospiro[indene-2,4′-piperidin]-6-yl)ethan-1-one], for which the inhibition at 0.1 µM worked out at 90%.

Take `Nc1nc(N2CCC3(CC2)Cc2ccccc2[C@@H]3N)cnc1Sc1ccnc(N)c1Cl` [Example 18, (R)-1′-(6-amino-5-((2-amino-3-chloropyridin-4-yl)thio)pyrazin-2-yl)-1,3-dihydrospiro[indene-2,4′-piperidin]-1-amine]: the inhibition at 0.1 µM is 35%.

As for `Nc1nc(N2CCC3(CC2)Cc2ccc(N4CCOCC4=O)cc2[C@H]3N)cnc1Sc1ccnc(N)c1Cl` [Example 62, (S)-4-(1-amino-1′-(6-amino-5-((2-amino-3-chloropyridin-4-yl)thio)pyrazin-2-yl)-1,3-dihydrospiro [indene-2,4′-piperidin]-6-yl) morpholin-3-one], the inhibition at 0.1 µM amounted to 76%.

`Nc1cnccc1Sc1cnc(N2CCC3(CC2)Cc2ncccc2[C@H]3N)cn1` [Example 108, (S)-1′-(5-((3-amino-pyridin-4-yl)thio)pyrazin-2-yl)-5,7-dihydrospiro [cyclopenta[b]pyridine-6,4′-piperidin]-5-amine]: the inhibition at 0.1 µM is 71%.

In the case of `N#Cc1cc2c(cc1F)CC1(CCN(c3cnc(Sc4ccnc(N)c4Cl)c(N)n3)CC1)[C@@H]2N` [Example 42, (S)-1-amino-1′-(6-amino-5-((2-amino-3-chloropyridin-4-yl)thio)pyrazin-2-yl)-5-fluoro-1,3-dihydro-spiro[indene-2, 4′-piperidine]-6-carbonitrile], the inhibition at 0.1 µM came out at 49%.

For the compound `N[C@@H]1c2ccccc2CC12CCN(c1cnc(Sc3ccnc(O)c3Cl)cn1)CC2` [Example 133, (S)-4-((5-(1-amino-1,3-dihydrospiro[indene-2,4′-piperidin]-1′-yl)pyrazin-2-yl)thio)-3-chloro pyridin-2-ol], the inhibition at 0.1 µM was found to be 76%.

For the compound `N[C@@H]1c2cccnc2CC12CCN(c1cnc(Sc3ccnc(O)c3Cl)cn1)CC2` [Example 135, (S)-4-((5-(5-amino-5,7-dihydrospiro [cyclopenta[b]pyridine-6,4′-piperidin]-1′-yl)pyrazin-2-yl)thio)-3-chloropyridin-2-ol], the inhibition at 0.1 µM was 86%.

As for `Nc1cccc(Sc2cnc(N3CCC4(CC3)Cc3ncccc3C4N)cn2)c1Cl` (stereo not drawn) [Example 128, 1′-(5-((3-amino-2-chlorophenyl)thio)pyrazin-2-yl)-5,7-dihydrospiro [cyclopenta[b]pyridine-6,4′-piperidin]-5-amine], the inhibition at 0.1 µM came out at 84%.

In the case of `Nc1nc(N2CCC3(CC2)Cc2ccc(Br)cc2[C@H]3N)cnc1Sc1ccnc(N)c1Cl` [Example 28, (S)-1′-(6-amino-5-((2-amino-3-chloropyridin-4-yl)thio)pyrazin-2-yl)-6-bromo-1,3-dihydro-spiro[indene-2,4′-piperidin]-1-amine], the inhibition at 0.1 µM turned out to be 75%.

Consider `N[C@@H]1c2cccnc2CC12CCN(c1cnc(Sc3cc(F)ncc3Cl)cn1)CC2` [Example 101, (S)-1′-(5-((5-chloro-2-fluoro-pyridin-4-yl)thio)pyrazin-2-yl)-5,7-dihydrospiro[cyclopenta [b]pyridine-6,4′-piperidin]-5-amine], for which the inhibition at 0.1 µM stood at 83%.

Regarding `Nc1cccc(Sc2ncc(N3CCC4(CC3)Cc3ccccc3[C@H]4N)nc2N)c1Cl` [Example 53, (S)-1′-(6-amino-5-((3-amino-2-chlorophenyl)thio)pyrazin-2-yl)-1,3-dihydro spiro[2,4′-piperidin]-1-amine], the inhibition at 0.1 µM was 84%.

With `COc1nccc(Sc2ncc(N3CCC4(CC3)Cc3ccccc3[C@H]4N)nc2N)c1Cl` [Example 54, (S)-1′-(6-amino-5-((3-chloro-2-methoxypyridin-4-yl)thio)pyrazin-2-yl)-1,3-dihydrospiro [indene-2,4′-piperidin]-1-amine], the inhibition at 0.1 µM was found to be 69%.
